Data on three compounds can be found in patent US9840627B2, “Application of camptothecin and derivatives thereof as antifouling agent” (priority 2013, dated 2017).

Holding throughout (format): in vivo
Assay [1] relates to cypris larvas of Balanus albicostatus. The assay is described as follows: Inhibitory effect on the attachment of barnacles (cypris larvas). Particulars: 48 h, membrane filtrated seawater. The text has this:
Barnacles are sessile Cirripedia with calcareous shells and widespread. They firmly attach to the surfaces of vessels and various offshore artificial facilities, and are one of the major marine fouling organisms as well as one of the major target organisms in the study of antifouling technology. Adults of Balanus albicostatus were collected from the rocks and piers at Baicheng Coast in Xiamen, and their cypris larvas were obtained by culturing in laboratory. It is the attachment of the cypris larvas that causes the barnacles to change from swimming life to attaching life. Thus, inhibition of the attachment of the cypris larvas can verify the antifouling activity of the compounds. CPT and 10-hydroxyl-CPT were dissolved in ethyl acetate respectively, and a series of concentration gradient were set according to the results of pre-experiment. 1 ml of each solution was taken to a petri dish respectively, 1 ml of ethyl acetate was taken to another blank petri dish serving as control group. After the solvents evaporated completely and the compounds were distributed evenly on the bottom surfaces and the side surfaces of the petri dishes, each petri dish was added with 10 ml of membrane filtrated seawater (filtrated by membrane with pore size of 0.22 μm, the same below). […]

The subject of assay [2] is larvas of Bugula neritina. Briefly: Inhibitory effect on the attachment of Bugula larvas. Particulars: 48 h, membrane filtrated seawater. The text has this: Bugulas are marine bryozoan and widespread in various sea areas in the world. They often attach to the surfaces of marine artificial facilities like mariculture netting, cages, vessels, buoys, etc., and they are important marine fouling organisms as well. Bugula neritina, also called multicellular Bugula, its adults were collected from the fish culture net bins in Western sea area of Xiamen and put into an aquarium filled with fresh seawater after back to the laboratory to induce the release of their swimming larvas. It is the attachment of their swimming larvas that causes the Bugulas to change from swimming life to attaching life. Thus, inhibition of the attachment of the swimming larvas can verify the antifouling activity of the compounds. CPT and 10-hydroxyl-CPT were dissolved in ethyl acetate respectively, and a series of concentration gradient were set according to the results of pre-experiment. 1 ml of each solution was taken to a petri dish respectively; 1 ml of ethyl acetate was taken to another blank petri dish serving as control group. After the solvents evaporated completely and the compounds were distributed evenly on the bottom surfaces and the side surfaces of the petri dishes, each petri dish was added with 10 ml of membrane filtrated seawater. […]

Assay [3] has as its system marine large fouling organisms. Particulars: for coverage ratio of fouling organisms (%, Mean ± SE): antifouling agent 20% by weight in paint, panels in sea area, Xiamen. As for the experimental part:
The panel test in natural sea area was carried out referring to the national standard GB/T5370-2007 “Method for testing antifouling panels in shallow submergence”. […] The tested panels were fixed in iron frames after the paints had dried, and they were hanged on the test buoyant rafts in the sea area near Dalipu Island in Xiamen in June, 2010. After the tested panels had been immersed in seawater up to 3, 6, 9 and 12 months, they were then photographed, and the coverage ratios of the fouling organisms in each coated sample areas were analyzed and counted. Herein, the coverage ratio of the fouling organisms is the ratio of surface area covered by marine large fouling organisms in the sample area divided by the whole surface area in the sample area (the same below), and the lower the value is, the higher the antifouling efficiency will be.

The next assay has as its system Perna viridis. The assay is described as follows: Inhibitory effect on the attachment of mussels by produced byssal threads. The following applies: 24 h culture at room temperature. The text has this: Mussels are common bivalve in marine fouling biocenoses, widespread, and are one of the major target organisms in the study of marine antifouling technology. Mussels explore surfaces by their feet, looking for attachment substrate. If proper surfaces for attaching were found, mussels would produce byssal threads to attach to them. […] Perna viridis were collected from the fish net bins in offshore sea area of Zhangzhou, and in which those with shell length of 1.4˜2.4 cm were selected and washed with seawater, followed by gent cut-off of the byssal threads. And then the Perna viridis were washed with membrane filtrated seawater. CPT were first dissolved in a trace of dimethyl sulfoxide, and then mixed with membrane filtrated seawater to prepare a series of concentration gradient. 4 ml of each solution was taken into a 12-well plate, and each well was added with one Perna viridis. 4 ml of membrane filtrated seawater containing a trace of dimethyl sulfoxide and one Perna viridis were added into the control group. Each experimental group and control group had 8 paralleled groups. After 24-hours culture at room temperature, the amount of byssal threads produced by Perna viridis were observed, and the half inhibition concentration of CPT for the attachment of Perna viridis by produced byssal threads, EC50, were determined.

Where two headings read alike, the source gives them in different places.

Turning to `CC[C@@]1(O)C(=O)OCc2c1cc1n(c2=O)Cc2cc3ccccc3nc2-1` [CPT, Camptothecin (CPT)], the “half inhibition concentration (EC50) for the attachment of cypris larvas of Balanus albicostatus” value in assay [1] stood at 1.73 µg/mL. The “EC50 for the attachment of larvas of Bugula neritina” value in assay [2] came to 15.02 µg/mL. Further, the “coverage ratio of fouling organisms (%, Mean ± SE)” value in assay [3] (after 3 months) is reported as 0.15 ± 0.12%; in assay [3] (after 6 months) it was 11.6 ± 6.68%; in assay [3] (after 9 months), 9.03 ± 2.64%; in assay [3] (after 12 months), 39.67 ± 10.43%. Moreover, the antifouling term entry in assay [3] (paints prepared with CPT as antifouling agent, panel test in sea area) is given as “up to 12 months”. Further, the “EC50 for the attachment of Perna viridis by produced byssal threads” value with Perna viridis was 10.78 µg/mL.

Consider `CC[C@@]1(O)C(=O)OCc2c1cc1n(c2=O)Cc2cc3cc(O)ccc3nc2-1` [10-hydroxyl-CPT], for which the “half inhibition concentration (EC50) for the attachment of cypris larvas of Balanus albicostatus” value in assay [1] was 1.78 µg/mL. In addition, in assay [2], the “EC50 for the attachment of larvas of Bugula neritina” value stood at 5.93 µg/mL.

Take `[Cu].[O]=[Cu]` [Cu2O, cuprous oxide, reference compound]: the “coverage ratio of fouling organisms (%, Mean ± SE)” value worked out at 7.23 ± 2.02% in assay [3] (after 3 months), 91.75 ± 2.90% in assay [3] (after 6 months), 70.91 ± 13.40% in assay [3] (after 9 months) and 98.88 ± 0.48% in assay [3] (after 12 months).
